Entries after “also recorded” stand apart in the source; their conditions may differ. Where a SMILES comes first, the peptide text is derived from it.
Experiment: Peptide stability in human plasma (RP-HPLC)
Format: in vitro ADME
Details: human plasma (EDTA blood, healthy volunteers), 37 °C, various time points, RP-HPLC with 0.1% trifluoroacetic acid, absorbance at 210 nm, average ± SEM of three separate experiments; result in words
Procedure: Figure 1 Peptide stability in plasma. Pentapeptide 1 was incubated in human plasma at 37 °C. Levels of the peptide remaining after various time points were analyzed by RP-HPLC in the presence of 0.1% trifluoroacetic acid and detected by absorbance at 210 nm. Peptide amounts were calculated relative to quantities determined at time point zero, and data shown are the average ± SEM of three separate experiments.
Blood was collected from healthy volunteers in EDTA blood collection tubes (BD Vacutainer, Mississauga, ON, Canada). Plasma was collected after centrifugation at 900× g and 20 °C for 10 min with decreased deceleration, aliquoted, and stored at −80 °C. All subjects gave their informed consent for inclusion before they participated in the study. The study was conducted in accordance with the Declaration of Helsinki, with all protocols approved by the Research Ethics Board at Health Sciences North Research Institute (Protocol # 18-061).
The stability of pentapeptide 1 in human plasma was analyzed using previously published methods.

Structure (SMILES): NCCCC[C@H](N)C(=O)N[C@@H](Cc1c[nH]c2ccccc12)C(=O)N[C@@H](CS)C(=O)N[C@@H](CCC(=O)O)C(=O)N[C@@H](CS)C(=O)O [Peptide 1, KWCEC] (H-KWCEC-OH)
- Plasma stability: peptide remaining relative to time point zero: No statistical difference was found between the two time points; also recorded: not recognized and cleaved by proteolytic enzymes
